Data: PubChem BioAssay AID1259411 (Chemical Carcinogenesis Research Information System (CCRIS), 2018)
Active and inactive are the calls of the source. How the calls were made is not given here.

Test system: rodent carcinogenicity bioassays, tumor incidence
Experiment: CCRIS carcinogenicity studies
Conditions: Route: ORAL, Dose: 0, 620, 1250 PPM IN DIET FOR 103 WK (STUDY DURATION: 104 WK), Dose: 0, 620, 1250 PPM IN DIET FOR 103 WK (STUDY DURATION: 104 WK)
Procedure, shortened: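 Archive of carcinogenicity, mutagenicity, tumor promotion and tumor inhibition results drawn from journals, NCI reports and other sources, expert-reviewed; covers 1985-2011 and is no longer updated.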

O=C(O)C1C(C(=O)O)C2(Cl)C(Cl)=C(Cl)C1(Cl)C2(Cl)Cl (centres undefined)
carcinogen call (Species: MOUSE, Strain/Sex: B6C3F1/FEMALE): inactive; negative | carcinogen call (Species: MOUSE, Strain/Sex: B6C3F1/MALE, Tumor Site: Type of Lesion: LIVER: HEPATOCELLULAR ADENOMA, LIVER: HEPATOCELLULAR CARCINOMA, LIVER: HEPATOCELLULAR ADENOMA OR CARCINOMA, Tumor Site: Type of Lesion: LIVER: HEPATOCELLULAR ADENOMA, LIVER: HEPATOCELLULAR CARCINOMA, LIVER: HEPATOCELLULAR ADENOMA OR CARCINOMA): active; positive | carcinogen call (Species: RAT, Strain/Sex: F344/FEMALE, Tumor Site: Type of Lesion: LIVER: NEOPLASTIC NODULE, LIVER: HEPATOCELLULAR CARCINOMA, LIVER: NEOPLASTIC NODULE OR HEPATOCELLULAR CARCINOMA, UTERUS:, Tumor Site: Type of Lesion: LIVER: NEOPLASTIC NODULE, LIVER: HEPATOCELLULAR CARCINOMA, LIVER: NEOPLASTIC NODULE OR HEPATOCELLULAR CARCINOMA, UTERUS:): active; positive | carcinogen call (Species: RAT, Strain/Sex: F344/MALE, Tumor Site: Type of Lesion: LUNG: ALVEOLAR/BRONCHIOLAR ADENOMA, LUNG: ALVEOLAR/BRONCHIOLAR ADENOMA OR CARCINOMA, LIVER: NEOPLASTIC NODULE, LIVER: NE, Tumor Site: Type of Lesion: LUNG: ALVEOLAR/BRONCHIOLAR ADENOMA, LUNG: ALVEOLAR/BRONCHIOLAR ADENOMA OR CARCINOMA, LIVER: NEOPLASTIC NODULE, LIVER: NE): active; positive
